Organism: Homo sapiens
Experiment: The compound was tested for antiviral activity against HIV-1/Ba-L-infected monocyte-derived macrophages in human at a concentration of 0.5 mM
Assay type: functional
Conditions: at 0.5 mM

Point of comparison: `O=C1N[C@H](C(=O)O)CS1` [PROCYSTEINE], Untreated control 81%. Against it:
- O=C1N[C@H](C(=O)OCC(=O)c2ccccc2)CS1 — lower, 69%

Organism: Homo sapiens
Experiment: The compound was tested for antiviral activity against HIV-1/Ba-L-infected monocyte-derived macrophages in human at a concentration of 2 mM
Assay type: functional
Conditions: not given

Point of comparison: `CCOC(=O)[C@@H]1CSC(=O)N1`, “Percent of untreated control” value 86%. Against it:
- CC(=O)N1C(=O)SC[C@H]1C(=O)O — lower, 34%
- Cl.N[C@@H](CCC(=O)N1C(=O)SC[C@H]1C(=O)NCC(=O)O)C(=O)O — higher, 159%
- CCOC(=O)[C@@H]1CSC(=O)N1C(=O)CC[C@H](N)C(=O)O.Cl — lower, 37%
- CC(C)(C)OC(=O)N[C@@H](CCC(=O)N1C(=O)SC[C@H]1C(=O)O)C(=O)OC(C)(C)C — higher, 102%
- O=C(O)CNC(=O)[C@@H]1CSC(=O)N1 — lower, 45%
- Cl.N[C@@H](CCC(=O)N1C(=O)SC[C@H]1C(=O)O)C(=O)O — lower, 83%
- CC(=O)N[C@@H](CS)C(=O)O [ACETYLCYSTEINE] — higher, 88%
- CC(C)(C)OC(=O)CNC(=O)[C@@H]1CSC(=O)N1 — higher, 104%

In the case of `O=C1N[C@H](C(=O)O)CS1` [PROCYSTEINE], the “Percent of untreated control” value is reported as 37.
